# Publication PMC9631343 (ACS Bio & Med Chem Au, 2022)
# Assay: in vitro
# Conditions: African green monkey
row,Structure (SMILES),CC50 [µM]
1,O=c1[nH]cnc2c([C@@H]3N[C@H](CO)[C@@H](O)[C@H]3O)c[nH]c12 [forodesine],> 100
2,"Nc1ncnc2c1ncn2[C@@H]1O[C@H](CO)[C@@H](O)[C@@H]1O [vidarabine, Arabinosyladenine]",> 100
3,CCC(CC)COC(=O)[C@H](C)N[P@](=O)(OC[C@H]1O[C@@](C#N)(c2ccc3c(N)ncnn23)[C@H](O)[C@@H]1O)Oc1ccccc1 [remdesivir],> 100
4,CC(C)C(=O)OC[C@H]1O[C@@H](n2ccc(NO)nc2=O)[C@H](O)[C@@H]1O [molnupiravir],> 100
5,CC(C)Nc1nc2cc(Cl)c(Cl)cc2n1[C@H]1O[C@@H](CO)[C@H](O)[C@@H]1O [maribavir],> 100
6,OC[C@H]1O[C@@H](n2cnc3c(N[C@@H]4CCOC4)ncnc32)[C@H](O)[C@@H]1O [tecadenoson],> 100
7,COc1nc(N)nc2c1ncn2[C@@H]1O[C@H](CO)[C@@H](O)[C@@H]1O [nelarabine],> 100
8,"CC(C)=CCNc1ncnc2c1ncn2[C@@H]1O[C@H](CO)[C@@H](O)[C@H]1O [riboprine, N^6-(2-Isopentenyl)adenosine]",> 100
